The record followed here is publication PMC11435058, “Synthesis of New Thiazole-Privileged Chalcones as Tubulin Polymerization Inhibitors with Potential Anticancer Activities” (Pharmaceuticals, 2024).

Read-outs that look alike come from different tables or passages of the source. A value given as a limit tells only on which side of the number the result lay.

For data set [1], the system named is 60 human tumor cell lines panel. Put plainly: NCI-60 anticancer screen, whole panel (means and ranges over the cell lines). The note with it: for activity at 10 µM: Homo sapiens, 48 h; for Log10GI50 _MID / Log10LC50 _MID / Log10TGI _MID: five doses, mean graph midpoint over all cell lines. The class given is cell-based.
Another data set deals with tubulin. The experiment in a line: In vitro tubulin polymerization inhibition assay. Particulars: 4 mg/mL tubulin, 37°C, absorbance at 340 nm. The class given is biochemical. As for the experimental part: 4.2.2. In Vitro Tubulin Polymerization Inhibition Assay.
2p, and the reference drug CD -4) with the microtubule system. Specifically, the in vitro inhibition of tubulin polymerization was evaluated for these compounds. The standard tubulin polymerization reaction was carried out, containing 100 μL of 4 mg/mL tubulin in a buffer solution of 80 mM PIPES (pH 6.9), 0.5 mM EGTA, 2 mM MgCl2, and 1 mM GTP. Polymerization was initiated by incubating the reaction […]
Under these conditions, polymerization typically reaches a maximum absorbance of […]
growth, and steady state. In this experimental set up, an absorbance of 0.1 at 340 nm corresponds to approximately 1 mg/mL of polymerized tubulin, meaning that around […]
40% of the tubulin is polymerized, allowing for the detection of both enhancers and inhibitors of polymerization. The inhibitory effect of each compound on tubulin polymerization was quantified by determining the IC50 values, which were reported as the mean ± standard deviation from three independent experiments. […]

Another data set relates to K-562. The experiment in a line: NCI-60 anticancer screen (SRB; single dose and five doses). The note with it: Homo sapiens; for GI50 / IC50: K562; for activity at 10 µM: K562, 48 h, read-out: Growth Percentage; for CC50: K562, read-out: LC50; for IC (TGI): K562, read-out: TGI.
The next data set deals with HOP-92. Described as above. The note with it: Homo sapiens; for GI50 / IC50: HOP-92; for activity at 10 µM: HOP-92, 48 h, read-out: Growth Percentage; for CC50: HOP-92, read-out: LC50; for IC (TGI): HOP-92, read-out: TGI.
In the next data set the test system is U251. Described as above. The note with it: Homo sapiens; for GI50 / IC50: U-251; for activity at 10 µM: U-251, 48 h, read-out: Growth Percentage; for CC50: U-251, read-out: LC50; for IC (TGI): U-251, read-out: TGI.
For another data set, the system named is SK-MEL-28. The data set is described as above. Particulars: Homo sapiens; for GI50 / IC50: SK-MEL-28; for activity at 10 µM: SK-MEL-28, 48 h, read-out: Growth Percentage; for CC50: SK-MEL-28, read-out: LC50; for IC (TGI): SK-MEL-28, read-out: TGI.
The next data set relates to UACC-62. The description is as above. Particulars: Homo sapiens; for GI50 / IC50: UACC-62; for activity at 10 µM: UACC-62, 48 h, read-out: Growth Percentage; for IC (TGI): UACC-62, read-out: TGI.
For the next data set, the system named is T-47D. The data set is described as above. Particulars: Homo sapiens, T47D; for activity at 10 µM: 48 h, read-out: Growth Percentage; for CC50: read-out: LC50; for IC (TGI): read-out: TGI.
Setting [2] is: mean over the tested cell lines, dose of 10 μM, read-out: Mean growth percentage.
Setting [3] is: range over the cell lines, dose of 10 μM, read-out: growth percentages against most of the tested cells (lowest to highest).
Setting [4] is: read-out: growth percentages against most of the tested cells (lowest to highest).

In the case of `Cc1[nH]c(=S)sc1C(=O)/C=C/c1ccc(Br)cc1` [2g, (E)-3-(4-Bromophenyl)-1-(4-Methyl-2-Thioxo-2,3-Dihydrothiazol-5-yl)Prop-2-En-1-One], the activity at 10 µM in data set [1] (setting [2]) was 34.2%; in [1] (setting [3]), -34.1 to 109%; with K-562, 13.6%; with HOP-92 it was 67.1%; in the data set on U251 it was 15.5%; in the data set on SK-MEL-28 it was 64.2%. Moreover, the activity at 10 µM was 46.8% in the data set on UACC-62 and 29% in the data set with T-47D. Also, the “Log10GI50 _MID” value in data set [1] is -5.31 Molar. In addition, the “Log10LC50 _MID” value in [1] is -4.3 Molar. The “Log10TGI _MID” value in data set [1] is reported as -4.75 Molar. For the same compound, the IC50 (as a rule, the midpoint of a concentration-inhibition curve) in the data set on tubulin came out at 18.5 µM. Also, the GI50 (commonly the concentration giving 50% growth inhibition) in the data set with K-562 stood at 2.73 µM; in the data set on HOP-92, 6.44 µM; in the data set on U251 it was 2870 nM; in the data set on SK-MEL-28 it was 11.9 µM; in the data set with UACC-62, 5.17 µM; in the data set with T-47D it was 2770 nM. In addition, the CC50 in the data set with K-562 is more than 100 µM; in the data set on HOP-92, 58.8 µM; in the data set with U251, 39.7 µM; in the data set on SK-MEL-28, 50.2 µM; in the data set with T-47D, 61.7 µM. Further, the IC (TGI) in the data set on K-562 is more than 100 µM; in the data set on HOP-92, 22.5 µM; with U251, 11.7 µM; with SK-MEL-28 it was 24.5 µM; in the data set on UACC-62, 18.6 µM; in the data set on T-47D, 11.8 µM.

Consider `COc1cc(/C=C/C(=O)c2sc(=S)[nH]c2C)cc(OC)c1OC` [2p, (E)-1-(4-Methyl-2-Thioxo-2,3-Dihydrothiazol-5-yl)-3-(3,4,5-Trimethoxyphenyl)Prop-2-En-1-One], for which the activity at 10 µM in data set [1] (setting [2]) was 14.9%; in data set [1] (setting [3]), -64.6 to 96.5%; with K-562 it was 8.21%; with HOP-92, 16.4%; with U251, 15%; with SK-MEL-28, 24.2%. The activity at 10 µM in the data set with UACC-62 was -3.11%; in the data set on T-47D, -1.59%. Moreover, the IC50 amounted to 25.1 µM with tubulin; 3.72 µM in the data set with K-562; 44.7 µM in the data set on HOP-92; 4.17 µM in the data set with U251; 9.12 µM in the data set on SK-MEL-28; 5.37 µM in the data set with UACC-62. Also, the IC50 in the data set with T-47D is 7.24 µM. For the same compound, the 50% growth inhibitory concentration (GI50) is 3.02 µM with K-562; 2.95 µM in the data set with HOP-92; 3020 nM in the data set with U251; 4.07 µM with SK-MEL-28; 2.82 µM with UACC-62; 2190 nM in the data set on T-47D. The CC50 in the data set on K-562 was more than 100 µM; with HOP-92, more than 100 µM; in the data set with U251, 43.6 µM; in the data set on SK-MEL-28 it was 57.5 µM; with T-47D, more than 100 µM. In addition, the IC (TGI) in the data set with K-562 was more than 100 µM; in the data set on HOP-92, 19.9 µM; in the data set with U251, 12 µM; in the data set with SK-MEL-28, 17.4 µM; in the data set with UACC-62, 12.3 µM; in the data set on T-47D it was 13.2 µM.

For the compound `COc1ccc(/C=C/C(=O)c2sc(=S)[nH]c2C)cc1OC` [2o, (E)-3-(3,4-Dimethoxyphenyl)-1-(4-Methyl-2-Thioxo-2,3-Dihydrothiazol-5-yl)Prop-2-En-1-One], the melting point (usually the temperature, or range, at which the solid turns liquid) lay in the range of 245 to 247 °C. In addition, the activity at 10 µM in data set [1] (setting [2]) stood at 55.1%. The activity at 10 µM in data set [1] (setting [3]) was -0.42 to 126%. In addition, the activity at 10 µM in the data set on K-562 came to 32.4%. For the same compound, in the data set with HOP-92, the activity at 10 µM stood at 83.7%. Moreover, the activity at 10 µM with U251 is 33.7%. Besides, in the data set with SK-MEL-28, the activity at 10 µM is 83.2%. The activity at 10 µM with UACC-62 worked out at 63.9%. Further, in the data set on T-47D, the activity at 10 µM stood at 44.1%.

The compound `COc1ccc(/C=C/C(=O)c2sc(=S)[nH]c2C)c(OC)c1` [2n, (E)-3-(2,4-Dimethoxyphenyl)-1-(4-Methyl-2-Thioxo-2,3-Dihydrothiazol-5-yl)Prop-2-En-1-One] displayed a melting point of 255 to 257 °C. The activity at 10 µM in data set [1] (setting [4]) lay in the range of 19.2 to 123%. In addition, the activity at 10 µM in data set [1] (setting [2]) amounted to 75.1%. In the data set on K-562, the activity at 10 µM is 48.9%. Besides, in the data set on HOP-92, the activity at 10 µM amounted to 103%. In addition, in the data set on U251, the activity at 10 µM is 68.6%. Moreover, the activity at 10 µM in the data set on SK-MEL-28 came to 92.8%. The activity at 10 µM in the data set on UACC-62 is 65.2%. In addition, the activity at 10 µM in the data set on T-47D came out at 30.9%.

With `Cc1[nH]c(=S)sc1C(=O)/C=C/c1cccc([N+](=O)[O-])c1` [2h, (E)-1-(4-Methyl-2-Thioxo-2,3-Dihydrothiazol-5-yl)-3-(3-Nitrophenyl)Prop-2-En-1-One], the activity at 10 µM is -21.8% in data set [1] (setting [2]); 13.8% in the data set with K-562; -76% in the data set with U251; -47% with SK-MEL-28; -56.7% with UACC-62; -56.6% in the data set on T-47D. In addition, in [1], the “Log10GI50 _MID” value was -5.37 Molar. In addition, in data set [1], the “Log10LC50 _MID” value is given as -4.34 Molar. In [1], the “Log10TGI _MID” value is given as -4.82 Molar. Besides, the IC50 in the data set on tubulin was 12.5 µM; in the data set on K-562 it was 3.72 µM; with HOP-92 it was 22.4 µM; in the data set on U251, 3.09 µM; in the data set on SK-MEL-28, 13.2 µM; with UACC-62, 7.94 µM. The same compound registered a 50% inhibitory concentration (IC50) with T-47D of 4.9 µM. Besides, the concentration for 50% growth inhibition (GI50) in the data set with K-562 was determined as 3.09 µM; in the data set on HOP-92 it was 3.89 µM; in the data set on U251, 1740 nM; in the data set on SK-MEL-28, 5.5 µM; in the data set with UACC-62, 3.55 µM; in the data set with T-47D it was 2000 nM. The CC50 with K-562 is more than 100 µM; with HOP-92, 44.7 µM; in the data set on U251 it was 5.89 µM; in the data set on SK-MEL-28, 44.7 µM; with UACC-62 (UACC-62, read-out: LC50), 41.7 µM; in the data set with T-47D it was 66.1 µM. Further, the IC (TGI) is more than 100 µM with K-562; 16.6 µM in the data set with HOP-92; 3.24 µM in the data set with U251; 18.2 µM with SK-MEL-28; 15.8 µM in the data set on UACC-62; 7.08 µM in the data set on T-47D.

In the case of `Cc1ccc(/C=C/C(=O)c2sc(=S)[nH]c2C)cc1` [2j, (E)-1-(4-Methyl-2-Thioxo-2,3-Dihydrothiazol-5-yl)-3-(p-Tolyl)Prop-2-En-1-One], the melting point lay in the range of 241 to 243 °C. The activity at 10 µM in data set [1] (setting [4]) lay within 11.8 to 131%. Moreover, the activity at 10 µM in data set [1] (setting [2]) came to 63.3%. In the data set on K-562, the activity at 10 µM came to 34.2%. The activity at 10 µM with HOP-92 was determined as 98%. Further, the activity at 10 µM in the data set with U251 turned out to be 60.4%. Moreover, the activity at 10 µM in the data set on SK-MEL-28 worked out at 92.8%. Also, in the data set on UACC-62, the activity at 10 µM came to 59.4%. Besides, the activity at 10 µM with T-47D came to 38.3%.

`Cc1[nH]c(=S)sc1C(=O)/C=C/c1ccc(N(C)C)cc1` [2k, (E)-3-(4-(Dimethylamino)Phenyl)-1-(4-Methyl-2-Thioxo-2,3-Dihydrothiazol-5-yl)Prop-2-En-1-One] came in with a melting point of 249 to 251 °C. Further, the activity at 10 µM in data set [1] (setting [4]) was in the range of 35.4 to 130%. Also, the activity at 10 µM in data set [1] (setting [2]) was 77.7%. Further, the activity at 10 µM with K-562 came out at 47%. Also, the activity at 10 µM in the data set on HOP-92 is 119%. In addition, in the data set with U251, the activity at 10 µM turned out to be 67.1%. Besides, the activity at 10 µM with SK-MEL-28 is 92.7%. Also, the activity at 10 µM with UACC-62 came to 58.7%. Further, in the data set with T-47D, the activity at 10 µM was 32.4%.
